Results reported in patent US6642180B1, “Biphenyl-substituted cyclic ketoenols as pesticides” (Bayer Aktiengesellschaft, priority 1999, dated 2003).

Columns and labels:
Format in all cases: in vivo
Echinochloa [1] = assay: Post-emergence test (greenhouse); details: 250 g ai./ha, after three weeks
Method: (§1) Solvent: 5 parts by weight of acetone
(§2) Emulsifier: 1 parts by weight of alkylaryl polyglycol ether
(§3) To produce a suitable preparation of active compound, 1 part by weight of active compound is mixed with the stated amount of solvent, the stated amount of emulsifier is added and the concentrate is diluted with water to the desired concentration.
(§4) Test plants of a height of 5-15 cm are sprayed with the preparation of active compound such that the particular amounts of active compound desired are applied per unit area. The concentration of the spray liquor is chosen such that the particular amounts of active compound desired are applied in 1000 l of water/ha.
(§5) After three weeks, the degree of damage to the plants is rated in % damage in comparison to the development of the untreated control.
(§6) 0% no effect (like untreated control)
(§7) Post-emergence/greenhouse

Setaria [2] = assay: Post-emergence test (greenhouse); details: 250 g ai./ha, after three weeks
Method: as §1, §2, §3, §4, §5, §6, §7

Alopecurus [3] = assay: Post-emergence test (greenhouse); details: 250 g ai./ha, after three weeks
Method: as §1, §2, §3, §4, §5, §6, §7

Sugar beet = assay: Post-emergence test (greenhouse); details: 250 g ai./ha, after three weeks
Method: as §1, §2, §3, §4, §5, §6, §7

[4] = test system: larvae of the mustard beetle (Phaedon cochleariae); assay: Phaedon-larvae test; details: cabbage leaves dipped
Method: Phaedon-larvae Test Solvent: 7 parts by weight of dimethylformamide Emulsifier: 1 part by weight of alkylaryl polyglycol ether To produce a suitable preparation of active compound, 1 part by weight of active compound is mixed with a stated amount of solvent and emulsifier, and the concentrate is diluted with emulsifier-containing water to the desired concentration. Cabbage leaves (Brassica oleracea) are treated by being dipped into the preparation of active compound of the desired concentration and are populated with larvae of the mustard beetle (Phaedon cochleariae) while the leaves are still moist.

Meloidogyne incognita = assay: Meloidogyne test; details: sand, Meloidogyne incognita egg/larvae suspension, lettuce
Method: Solvent: 7 parts by weight of dimethylformamide
as §2
To produce a suitable preparation of active compound, 1 part by weight of active compound is mixed with the stated amounts of solvent and emulsifier, and the concentrate is diluted with water to the desired concentration.
Containers are filled with sand, solution of active compound, Meloidogyne incognita-egg/larvae suspension and lettuce seeds. The lettuce seeds germinate and the plants develop. On the roots, galls are formed.
After the desired period of time, the nematicidal action is determined in % by the gall formation. 100% means that no galls were found; 0% means that the number of galls on the treated plants corresponds to that of the untreated control.

Echinochloa [5] = assay: Pre-emergence test (greenhouse); details: 250 g ai./ha, after 3 weeks
Method: as §1
(§8) Emulsifier: 1 part by weight of alkylaryl polyglycol ether
(§9) To produce a suitable preparation of active compound, 1 part by weight of active compound is mixed with the stated amount of solvent, with the stated amounts of emulsifiers added and the concentrate is diluted with water to the desired concentration.
(§10) Seeds of the test plants are sown in normal soil. After about 24 hours, the soil is sprayed with the preparation of active compound such that the particular amounts of active compound desired are applied per unit area. The concentration of the spray liquor is chosen such that the particular amounts of active compound desired are applied in 1000 l of water/ha.
(§11) After 3 weeks, the degree of damage to the plants is rated in % damage in comparison to the development of the untreated control.
(§12) 0%=no effect (like untreated control)

Avena fatua = assay: Pre-emergence test (greenhouse); details: 250 g ai./ha, after 3 weeks
Method: as §1, §8, §9, §10, §11, §12

Abutilon = assay: Pre-emergence test (greenhouse); details: 250 g ai./ha, after 3 weeks
Method: as §1, §8, §9, §10, §11, §12

Setaria [6] = assay: Pre-emergence test (greenhouse); details: 250 g ai./ha, after 3 weeks
Method: as §1, §8, §9, §10, §11, §12

Alopecurus [7] = assay: Pre-emergence test (greenhouse); details: 250 g ai./ha, after 3 weeks
Method: as §1, §8, §9, §10, §11, §12

## COC(=O)N(C)COC1=C(c2c(C)cc(-c3ccc(Cl)cc3)cc2C)C(=O)CC(C)(C)C1 [Example I-8-1]
Echinochloa [1]
  degree of damage to the plants, Echinochloa: 100%
Setaria [2]
  degree of damage to the plants, Setaria: 100%
Alopecurus [3]
  degree of damage to the plants, Alopecurus: 80%
Sugar beet
  degree of damage to the plants, Sugar beet: 0%
[4]
  activity (kill of beetle larvae): good activity
Meloidogyne incognita
  activity (nematicidal action by gall formation): good activity
Echinochloa [5]
  degree of damage to the plants, Echinochloa: 100%
Avena fatua
  degree of damage to the plants, Avena fatua: 90%
Abutilon
  degree of damage to the plants, Abutilon: 80%
Setaria [6]
  degree of damage to the plants, Setaria: 100%
Alopecurus [7]
  degree of damage to the plants, Alopecurus: 90%
